Data taken from article PMC7714403 (JCI Insight, 2020).

Assays:
CHEK2 = molecular target: T1, CHEK2 (Homo sapiens, UniProt O96017); experiment: KdELECT binding assay
T1 construct: purchased Eurofins DiscoverX

GSK3A = GSK3A (Homo sapiens, UniProt P49840); experiment: KiNativ, OCI cells live cell; assay type: cell-based; settings: 2 h, labeling site Lys2, peptide […]
NEK2 = NEK2 (Homo sapiens, UniProt P51955); experiment: KiNativ, OCI cells live cell; assay type: cell-based; settings: 2 h, labeling site Lys2, peptide […]
NEK2, sequence (P51955 whole entry): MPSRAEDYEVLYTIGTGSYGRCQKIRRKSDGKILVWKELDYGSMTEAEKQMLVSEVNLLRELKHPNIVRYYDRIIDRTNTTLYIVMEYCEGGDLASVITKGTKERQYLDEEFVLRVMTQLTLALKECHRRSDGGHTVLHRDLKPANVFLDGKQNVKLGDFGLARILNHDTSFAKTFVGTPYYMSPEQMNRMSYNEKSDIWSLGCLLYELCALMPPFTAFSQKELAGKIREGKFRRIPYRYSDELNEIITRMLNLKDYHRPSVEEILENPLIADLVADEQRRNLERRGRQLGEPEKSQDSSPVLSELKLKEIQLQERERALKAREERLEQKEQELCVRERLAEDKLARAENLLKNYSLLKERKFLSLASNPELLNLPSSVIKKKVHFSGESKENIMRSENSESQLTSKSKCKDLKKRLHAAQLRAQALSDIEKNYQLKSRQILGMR

BARK1 = BARK1 (Homo sapiens, UniProt P25098); experiment: KiNativ, OCI cells live cell; assay type: cell-based; settings: 2 h, labeling site Lys2, peptide […]
BARK1, sequence (P25098 whole entry, the tested form may be a part): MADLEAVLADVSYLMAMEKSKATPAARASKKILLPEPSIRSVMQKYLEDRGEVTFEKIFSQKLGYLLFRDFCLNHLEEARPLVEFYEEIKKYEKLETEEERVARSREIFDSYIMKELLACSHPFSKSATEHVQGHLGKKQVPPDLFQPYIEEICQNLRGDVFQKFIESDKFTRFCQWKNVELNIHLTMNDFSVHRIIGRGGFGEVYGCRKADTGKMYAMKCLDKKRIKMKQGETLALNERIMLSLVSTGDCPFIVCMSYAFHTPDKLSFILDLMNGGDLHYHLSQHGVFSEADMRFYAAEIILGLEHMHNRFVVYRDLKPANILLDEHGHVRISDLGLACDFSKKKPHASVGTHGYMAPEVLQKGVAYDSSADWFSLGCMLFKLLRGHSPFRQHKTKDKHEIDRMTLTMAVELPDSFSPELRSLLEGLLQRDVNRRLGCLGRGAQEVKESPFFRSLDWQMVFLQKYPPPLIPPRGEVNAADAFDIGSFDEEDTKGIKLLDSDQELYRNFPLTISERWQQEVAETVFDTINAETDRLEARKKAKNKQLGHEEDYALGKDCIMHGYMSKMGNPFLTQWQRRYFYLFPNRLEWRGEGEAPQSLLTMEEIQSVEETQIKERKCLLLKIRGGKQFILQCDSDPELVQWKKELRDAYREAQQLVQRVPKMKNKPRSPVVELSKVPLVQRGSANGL

RSK1 domain1 = molecular target: T2, RSK1 domain1 (Homo sapiens, UniProt Q15418); experiment: KiNativ, OCI cells live cell; assay type: cell-based; settings: 2 h
T2 construct: RSK1 domain1
T2 sequence (Q15418 whole entry, the tested form may be a part): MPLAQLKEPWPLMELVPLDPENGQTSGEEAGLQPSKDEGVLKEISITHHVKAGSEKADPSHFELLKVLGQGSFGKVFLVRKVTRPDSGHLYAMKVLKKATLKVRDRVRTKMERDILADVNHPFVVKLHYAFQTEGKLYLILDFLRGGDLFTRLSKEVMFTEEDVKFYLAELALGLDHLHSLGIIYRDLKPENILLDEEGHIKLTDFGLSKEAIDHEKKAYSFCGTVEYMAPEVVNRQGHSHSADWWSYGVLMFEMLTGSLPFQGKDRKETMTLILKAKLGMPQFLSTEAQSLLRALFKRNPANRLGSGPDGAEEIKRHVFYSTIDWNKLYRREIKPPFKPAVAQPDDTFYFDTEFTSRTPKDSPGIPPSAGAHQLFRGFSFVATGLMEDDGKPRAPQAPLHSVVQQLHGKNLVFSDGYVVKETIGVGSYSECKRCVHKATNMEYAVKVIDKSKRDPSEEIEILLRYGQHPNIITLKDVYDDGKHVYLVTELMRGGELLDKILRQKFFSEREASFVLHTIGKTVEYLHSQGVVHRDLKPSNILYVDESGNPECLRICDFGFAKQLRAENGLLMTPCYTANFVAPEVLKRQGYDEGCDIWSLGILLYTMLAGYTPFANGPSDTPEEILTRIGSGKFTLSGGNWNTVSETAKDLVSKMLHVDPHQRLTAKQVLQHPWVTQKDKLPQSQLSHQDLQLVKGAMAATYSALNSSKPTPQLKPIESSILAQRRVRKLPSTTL

ABL, ARG = experiment: KiNativ, MOLM13 live cells; assay type: cell-based, human; settings: 100 nM, 2 hours
Experimental: (§1) Samples were analyzed by KiNativ in situ kinase profiling by ActivX Biosciences.

AKT2, AKT3 = experiment: KiNativ, MOLM13 live cells; assay type: cell-based, human; settings: 100 nM, 2 hours; ATP Loop
Experimental: as §1

NDR1, NDR2 = experiment: KiNativ, MOLM13 live cells; assay type: cell-based, human; settings: 100 nM, 2 hours; Activation Loop
Experimental: as §1

NEK6, NEK7 = experiment: KiNativ, MOLM13 live cells; assay type: cell-based, human; settings: 100 nM, 2 hours; Lys2
Experimental: as §1

CDK11, CDK8 = experiment: KiNativ, MOLM13 live cells; assay type: cell-based, human; settings: 100 nM, 2 hours; Lys2
Experimental: as §1

KSR1, KSR2 = experiment: KiNativ, MOLM13 live cells; assay type: cell-based, human; settings: 100 nM, 2 hours; Activation Loop
Experimental: as §1

AMPKa1, AMPKa2 = experiment: KiNativ, MOLM13 live cells; assay type: cell-based, human; settings: 100 nM, 2 hours
Experimental: as §1

[1] = tested on: ZC1/HGK, ZC2/TNIK, ZC3/MINK; experiment: KiNativ, MOLM13 live cells; assay type: cell-based, human; settings: 100 nM, 2 hours; Lys2
Experimental: as §1

p38d, p38g = experiment: KiNativ, MOLM13 live cells; assay type: cell-based, human; settings: 100 nM, 2 hours; Lys2
Experimental: as §1

PI4KA, PI4KAP2 = experiment: KiNativ, MOLM13 live cells; assay type: cell-based, human; settings: 100 nM, 2 hours; ATP
Experimental: as §1

MAP3K2, MAP3K3 = experiment: KiNativ, MOLM13 live cells; assay type: cell-based, human; settings: 100 nM, 2 hours; Lys2
Experimental: as §1

JNK1, JNK2, JNK3 = experiment: KiNativ, MOLM13 live cells; assay type: cell-based, human; settings: 100 nM, 2 hours; Lys2
Experimental: as §1

[2] = tested on: MSK1 domain1, MSK2 domain1; experiment: KiNativ, MOLM13 live cells; assay type: cell-based, human; settings: 100 nM, 2 hours; ATP Loop
Experimental: as §1

MAP3K15, MAP3K5, MAP3K6 = experiment: KiNativ, MOLM13 live cells; assay type: cell-based, human; settings: 100 nM, 2 hours; Lys1
Experimental: as §1

PCTAIRE1, PCTAIRE3 = experiment: KiNativ, MOLM13 live cells; assay type: cell-based, human; settings: 100 nM, 2 hours; Lys2
Experimental: as §1

IKKe, TBK1 = experiment: KiNativ, MOLM13 live cells; assay type: cell-based, human; settings: 100 nM, 2 hours; Lys2
Experimental: as §1

SRPK1, SRPK2 = experiment: KiNativ, MOLM13 live cells; assay type: cell-based, human; settings: 100 nM, 2 hours; Lys1
Experimental: as §1

MARK2, MARK3 = experiment: KiNativ, MOLM13 live cells; assay type: cell-based, human; settings: 100 nM, 2 hours; Lys2
Experimental: as §1

MST1, MST2 = experiment: KiNativ, MOLM13 live cells; assay type: cell-based, human; settings: 100 nM, 2 hours; Lys2
Experimental: as §1

TAO1, TAO3 = experiment: KiNativ, MOLM13 live cells; assay type: cell-based, human; settings: 100 nM, 2 hours; Lys2
Experimental: as §1

MST4, YSK1 = experiment: KiNativ, MOLM13 live cells; assay type: cell-based, human; settings: 100 nM, 2 hours; Lys2
Experimental: as §1

Wnk1, Wnk2 = experiment: KiNativ, MOLM13 live cells; assay type: cell-based, human; settings: 100 nM, 2 hours; ATP Loop
Experimental: as §1

Wnk1, Wnk2, Wnk3 = experiment: KiNativ, MOLM13 live cells; assay type: cell-based, human; settings: 100 nM, 2 hours; Lys2
Experimental: as §1

[3] = tested on: RSK1 domain1, RSK2 domain1, RSK3 domain1; experiment: KiNativ, MOLM13 live cells; assay type: cell-based, human; settings: 100 nM, 2 hours; Lys2
Experimental: as §1

Wnk1, Wnk2, Wnk4 = experiment: KiNativ, MOLM13 live cells; assay type: cell-based, human; settings: 100 nM, 2 hours; Activation Loop
Experimental: as §1

CK1g1, CK1g2, CK1g3 = experiment: KiNativ, MOLM13 live cells; assay type: cell-based, human; settings: 100 nM, 2 hours; ATP Loop
Experimental: as §1

MAP2K1, MAP2K2 = experiment: KiNativ, MOLM13 live cells; assay type: cell-based, human; settings: 100 nM, 2 hours; Lys2
Experimental: as §1

MAPKAPK2, MAPKAPK3 = experiment: KiNativ, MOLM13 live cells; assay type: cell-based, human; settings: 100 nM, 2 hours; Lys2
Experimental: as §1

PCTAIRE2, PCTAIRE3 = experiment: KiNativ, MOLM13 live cells; assay type: cell-based, human; settings: 100 nM, 2 hours; Lys1
Experimental: as §1

[4] = tested on: CaMK2a, CaMK2b, CaMK2d, CaMK2g; experiment: KiNativ, MOLM13 live cells; assay type: cell-based, human; settings: 100 nM, 2 hours; Lys2
Experimental: as §1

AurA, AurB, AurC = experiment: KiNativ, MOLM13 live cells; assay type: cell-based, human; settings: 100 nM, 2 hours; ATP Loop
Experimental: as §1

FLT3 D835H = molecular target: T3, FLT3 D835H (Homo sapiens, UniProt P36888, D835H); experiment: KdELECT binding assay
T3 construct: purchased Eurofins DiscoverX

T1 sequence (O96017 whole entry): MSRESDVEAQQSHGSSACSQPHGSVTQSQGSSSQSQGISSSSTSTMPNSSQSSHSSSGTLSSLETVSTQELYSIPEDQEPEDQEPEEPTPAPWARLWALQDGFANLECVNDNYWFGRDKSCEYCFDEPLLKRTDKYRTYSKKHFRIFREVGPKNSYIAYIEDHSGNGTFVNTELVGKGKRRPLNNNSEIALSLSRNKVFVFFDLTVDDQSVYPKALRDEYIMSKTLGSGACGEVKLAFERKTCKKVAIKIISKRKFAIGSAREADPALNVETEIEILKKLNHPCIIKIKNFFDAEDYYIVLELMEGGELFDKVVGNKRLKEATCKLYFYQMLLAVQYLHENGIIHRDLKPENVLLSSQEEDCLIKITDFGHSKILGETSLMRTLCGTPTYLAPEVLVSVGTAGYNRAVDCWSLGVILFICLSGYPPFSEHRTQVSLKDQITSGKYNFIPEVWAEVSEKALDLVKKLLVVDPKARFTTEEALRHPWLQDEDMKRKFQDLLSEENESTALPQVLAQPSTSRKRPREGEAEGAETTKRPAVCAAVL
GSK3A, sequence (P49840 whole entry): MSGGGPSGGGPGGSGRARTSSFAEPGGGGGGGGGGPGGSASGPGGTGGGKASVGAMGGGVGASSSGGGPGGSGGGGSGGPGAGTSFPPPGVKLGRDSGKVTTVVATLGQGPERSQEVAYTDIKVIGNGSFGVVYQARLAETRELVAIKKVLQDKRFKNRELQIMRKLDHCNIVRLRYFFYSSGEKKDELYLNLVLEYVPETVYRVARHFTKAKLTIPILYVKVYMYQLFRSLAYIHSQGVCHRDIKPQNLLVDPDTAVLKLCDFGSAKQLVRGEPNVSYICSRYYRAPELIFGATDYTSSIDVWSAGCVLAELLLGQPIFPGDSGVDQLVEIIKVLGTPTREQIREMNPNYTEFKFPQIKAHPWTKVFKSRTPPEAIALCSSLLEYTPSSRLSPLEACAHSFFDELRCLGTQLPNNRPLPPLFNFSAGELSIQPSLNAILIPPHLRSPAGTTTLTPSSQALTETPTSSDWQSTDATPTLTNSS

CN1CCN(Cc2ccc(Nc3ncc(Cl)c(Nc4ccccc4S(=O)(=O)N(C)C)n3)cc2)CC1 [TP-0903]
Kd (CHEK2): < 5 nM
inhibition at 0.1 µM (GSK3A): 22.6%
inhibition at 0.1 µM (NEK2): 23.6%
inhibition at 0.1 µM (BARK1): -3.8%
inhibition at 0.1 µM (RSK1 domain1; labeling site Activation Loop, peptide LTDFGLSKEAIDHEKK): 44.9%
inhibition at 0.1 µM (RSK1 domain1; labeling site Lys1, peptide KVTRPDSGHLYAMKVLK): 42.9%
Inhibition vs DMSO (ABL, ARG; Activation Loop): 5.0%
Inhibition vs DMSO (ABL, ARG; Lys1): 24.5%
Inhibition vs DMSO (AKT2, AKT3): -63.3%
Inhibition vs DMSO (NDR1, NDR2): -0.8%
Inhibition vs DMSO (NEK6, NEK7): 7.8%
Inhibition vs DMSO (CDK11, CDK8): -1.1%
Inhibition vs DMSO (KSR1, KSR2): -11.7%
Inhibition vs DMSO (AMPKa1, AMPKa2; Lys1): 19.6%
Inhibition vs DMSO (AMPKa1, AMPKa2; Lys2): 33.8%
Inhibition vs DMSO [1]: 50.7%
Inhibition vs DMSO (p38d, p38g): -8.7%
Inhibition vs DMSO (PI4KA, PI4KAP2): 11.9%
Inhibition vs DMSO (MAP3K2, MAP3K3): -4.2%
Inhibition vs DMSO (JNK1, JNK2, JNK3): 18.9%
Inhibition vs DMSO [2]: -6.6%
Inhibition vs DMSO (MAP3K15, MAP3K5, MAP3K6): -11.5%
Inhibition vs DMSO (PCTAIRE1, PCTAIRE3): 81.4%
Inhibition vs DMSO (IKKe, TBK1): 74.5%
Inhibition vs DMSO (SRPK1, SRPK2): 21.8%
Inhibition vs DMSO (MARK2, MARK3): 37.1%
Inhibition vs DMSO (MST1, MST2): 41.2%
Inhibition vs DMSO (TAO1, TAO3): 9.9%
Inhibition vs DMSO (MST4, YSK1): 39.6%
Inhibition vs DMSO (Wnk1, Wnk2): -30.2%
Inhibition vs DMSO (Wnk1, Wnk2, Wnk3): -31.8%
Inhibition vs DMSO [3]: 15.9%
Inhibition vs DMSO (Wnk1, Wnk2, Wnk4): -35.0%
Inhibition vs DMSO (CK1g1, CK1g2, CK1g3): -28.7%
Inhibition vs DMSO (MAP2K1, MAP2K2): -17.4%
Inhibition vs DMSO (MAPKAPK2, MAPKAPK3): -22.0%
Inhibition vs DMSO (PCTAIRE2, PCTAIRE3): -8.3%
Inhibition vs DMSO [4]: -2.0%
Inhibition vs DMSO (AurA, AurB, AurC): 68.0%
Kd (FLT3 D835H): 1.9 nM
